Where two headings read alike, the source gives them in different places. Values belong to the molecule of their own block, whether it stands above or below them. Where no end group is shown, it is not given here.
Experiments:
ATAD2 BRD = details: induces dimerization of the ATAD2 BRD to block binding to acetylated histones; cited from earlier work
[1] = target: T1, human ATAD2B BRD-containing protein (residues 953–1085) (Homo sapiens, UniProt Q9ULI0); details: read-out: KD for ATAD2B; ITC; cited from earlier work
T1 sequence (Q9ULI0 953-1085): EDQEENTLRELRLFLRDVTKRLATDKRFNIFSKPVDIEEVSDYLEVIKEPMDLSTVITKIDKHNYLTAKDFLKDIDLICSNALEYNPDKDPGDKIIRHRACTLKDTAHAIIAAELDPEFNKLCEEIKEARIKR

[2] = target: T1, human ATAD2B BRD-containing protein (residues 953–1085); test: ITC of histone peptides with the ATAD2B BRD
[3] = target: T2, Human ATAD2 BRD-containing protein (residues 966–1112) (Homo sapiens, UniProt Q6PL18); details: read-out: KD for ATAD2; ITC; cited from earlier work
T2 sequence (Q6PL18 966-1112): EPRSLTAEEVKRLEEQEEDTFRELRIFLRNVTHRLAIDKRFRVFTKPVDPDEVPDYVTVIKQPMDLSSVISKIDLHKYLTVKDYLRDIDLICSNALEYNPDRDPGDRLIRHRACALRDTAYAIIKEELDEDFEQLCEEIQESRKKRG

Molecule: COc1cc(Cl)c(C(=O)N[C@@H](CN[C@H]2CC[C@@H](N)CC2)Cc2ccc(C#N)cc2)cc1-c1ccc(CN[C@H](C)c2ccc(C)cc2)o1 [BAY-850]
- IC50 (ATAD2 BRD): 0.02 µM

Molecule: H4K5ac (1–15): wild-type histone H4K5ac ligand residues 1–15, values from earlier papers
- Kd [1]: 5.2 ± 1 µM

- Kd [2]: 90 ± 12.8 µM
Molecule: SGRGKTGGK(Ac)ARAKAKSR-NH2 [H2A.XK9ac (1–17)]

Molecule: SGRGKacQGGKARA [H2AK5ac (1–12)]
- Kd [1]: 42.5 ± 2.9 µM
- Kd [3]: 38.9 ± 5.9 µM

Reference: publication PMC11149620 (Journal of medicinal chemistry, 2024)
